We go through 4 molecules from publication PMC5855800, “Charged N-terminus of Influenza Fusion Peptide Facilitates Membrane Fusion” (International Journal of Molecular Sciences, 2018).

Values joined by “and” are separate entries in the source; they are usually repeats but may differ in a detail not shown here. Equal values may be shown once. Read-outs that look alike come from different tables or passages of the source.

The format of data set [1] is binding.
The conditions of data set [2]: pH 5.
For data set [3] the following is noted: NMR, cited from earlier work. The text has this:
These values are considerably higher than expected in a hydrophobic environment (8.00 ± 0.03). […] T ...

The conditions of data set [4]: POPC vesicles; cited from earlier work. The source says: Since the early observations by Lear and de Grado [2] showing that membrane fusion of lipid vesicles can be accomplished by a short N-terminal synthetic fragment of HA2 subunit, such fusion peptides (HAfp) have been extensively used as full-length hemagglutinin mimicking species in the studies on membrane fusion. […] This is ...

`CC[C@H](C)[C@H](NC(=O)[C@H](C)NC(=O)CNC(=O)[C@H](Cc1ccccc1)NC(=O)[C@H](CC(C)C)NC(=O)CNC(C)=O)C(=O)N[C@@H](C)C(=O)NCC(=O)N[C@@H](Cc1ccccc1)C(=O)N[C@H](C(=O)N[C@@H](CCC(=O)O)C(=O)NCC(=O)NCC(=O)N[C@@H](Cc1c[nH]c2ccccc12)C(=O)N[C@@H](CCC(N)=O)C(=O)NCC(=O)N[C@@H](CCSC)C(=O)N[C@H](C(=O)N[C@@H](CC(=O)O)C(=O)NCC(N)=O)C(C)C)[C@@H](C)CC` [20Ac]: the “Gibbs binding free energy ΔGx^0” value in data set [1] (pH 5.0) is -7.55 ± 0.048 kcal/mol; in data set [1] (pH 7.4), -6.86 ± 0.048 kcal/mol.
For the molecule `CC[C@H](C)[C@H](NC(=O)[C@H](C)NC(=O)CNC(=O)[C@H](Cc1ccccc1)NC(=O)[C@H](CC(C)C)NC(=O)CN)C(=O)N[C@@H](C)C(=O)NCC(=O)N[C@@H](Cc1ccccc1)C(=O)N[C@H](C(=O)N[C@@H](CCC(=O)O)C(=O)NCC(=O)NCC(=O)N[C@@H](Cc1c[nH]c2ccccc12)C(=O)N[C@@H](CCC(N)=O)C(=O)NCC(=O)N[C@@H](CCSC)C(=O)N[C@H](C(=O)N[C@@H](CC(=O)O)C(=O)NCC(=O)N[C@@H](Cc1c[nH]c2ccccc12)C(=O)N[C@@H](Cc1ccc(O)cc1)C(=O)NCC(N)=O)C(C)C)[C@@H](C)CC` [23N+], the “Partition coefficient Kx·10^−3” value in data set [1] (22.0 °C) is 660 ± 80 and 480 ± 130. Further, the results for the “Gibbs binding free energy ΔGx^0” value in data set [1] (pH 5.0) and in data set [1] (pH 7.4) were -7.86 ± 0.072 kcal/mol and -7.67 ± 0.17 kcal/mol, respectively. Further, the “NBD-C6-PE fluorescence lifetime with peptide” value in data set [2] is reported as 6.55 ± 0.23 ns. In addition, in data set [3] (in the presence of dodecylphosphatidyl (DPC) detergents), the “pK for G1 N-terminal amino group” value is 8.8.
As for `CC[C@H](C)[C@H](NC(=O)[C@H](C)NC(=O)CNC(=O)[C@H](Cc1ccccc1)NC(=O)[C@H](CC(C)C)NC(=O)CN)C(=O)N[C@@H](C)C(=O)NCC(=O)N[C@@H](Cc1ccccc1)C(=O)N[C@H](C(=O)N[C@@H](CCC(=O)O)C(=O)NCC(=O)NCC(=O)N[C@@H](Cc1c[nH]c2ccccc12)C(=O)N[C@@H](CCC(N)=O)C(=O)NCC(=O)N[C@@H](CCSC)C(=O)N[C@H](C(=O)N[C@@H](CC(=O)O)C(=O)NCC(N)=O)C(C)C)[C@@H](C)CC` [20N+], the “Gibbs binding free energy ΔGx^0” value in data set [1] (pH 5.0) is -7.84 ± 0.072 kcal/mol; in data set [1] (pH 7.4), -7.19 ± 0.096 kcal/mol. In data set [2], the “NBD-C6-PE fluorescence lifetime with peptide” value amounted to 6.78 ± 0.20 ns. Besides, the “pK for G1 N-terminal amino group” value in data set [3] (in the presence of dioleoyl phosphocholine (PC) lipids) is 8.69. The “Ability to induce membrane fusion, in words” value in data set [4] was “able to induce membrane fusion”.
On to `CC[C@H](C)[C@H](NC(=O)[C@H](C)NC(=O)CNC(=O)[C@H](Cc1ccccc1)NC(=O)[C@H](CC(C)C)NC(=O)CNC(C)=O)C(=O)N[C@@H](C)C(=O)NCC(=O)N[C@@H](Cc1ccccc1)C(=O)N[C@H](C(=O)N[C@@H](CCC(=O)O)C(=O)NCC(=O)NCC(=O)N[C@@H](Cc1c[nH]c2ccccc12)C(=O)N[C@@H](CCC(N)=O)C(=O)NCC(=O)N[C@@H](CCSC)C(=O)N[C@H](C(=O)N[C@@H](CC(=O)O)C(=O)NCC(=O)N[C@@H](Cc1c[nH]c2ccccc12)C(=O)N[C@@H](Cc1ccc(O)cc1)C(=O)NCC(N)=O)C(C)C)[C@@H](C)CC` [23Ac], for which, in data set [1] (pH 5.0), the “Difference of ∆G^0 between N-acetylated and unmodified peptide of the same length” value is on record as ~ 2.3 kJ/mol. Besides, the entries for the “Gibbs binding free energy ΔGx^0” value in data set [1] (pH 5.0) and in data set [1] (pH 7.4) were -8.41 ± 0.072 kcal/mol and -8.94 ± 0.048 kcal/mol, respectively. Also, in data set [2], the “NBD-C6-PE fluorescence lifetime with peptide” value is 6.66 ± 0.25 ns.
